Source: patent US12564188B2, “Hydrogel beads for controlled uptake and release of cryoprotective agents” (The General Hospital Corporation, priority 2020, dated 2026)
Where two headings read alike, the source gives them in different places.

Key:
[1] = DMSO release from hydrogel beads into saline, osmolality by micro-osmometer; format: physicochemical; conditions: room temperature, 5.0 μL beads incubated in 15% DMSO
Experimental: Here, beads 1-5 mm in diameter were synthesized using microfluidic droplet generation and 2% polyacrylamide/bis-acrylamide, following standard oil emulsion methods^43, and beads were synthesized using calcium alginate. Uniform calcium-alginate hydrogel beads were synthesized by dripping 5% alginate from a needle with a surrounding nitrogen gas sheath into a CaCl2 bath. Bead size and uniformity was confirmed by imaging. 5.0 μL beads were incubated for four hours in a 15% DMSO solution, then strained, blotted, and weighed. Beads were then suspended in saline for several minutes under gentle mixing, and the rate of DMSO release was measured over time by sampling the solution and measuring osmolality by micro-osmometer. The rate of release was compared with numerical simulations of diffusion based on the average bead size (FIG. 3). The diffusion coefficient of DMSO within the gel was measured to be 1.0×10^−5 cm^2s^−1 at room temperature, matching expected values^41,42.
Expected outcomes and alternative approaches: The key metric of success is the ability to reliably add and then remove CPA from a given sample solution at tunable rates which are predicted by modeling. Bead geometry alone is sufficient to achieve gradual CPA uptake and release. The sample recovery was about 96% without any dilution in these experiments.

[2] = system: patients; conditions: cited from earlier work
[3] = DMSO implicated, co-injection with CAR T cells

diffusion coefficient of DMSO within the gel [1]: 1.0×10^−5 cm^2s^−1
SMILES: C[S+](C)[O-] [DMSO, dimethyl sulfoxide]
aphasia [2, 3]: 18% | delirium [2, 3]: 29% | encephalopathy [2, 3]: 34% | tremors [2, 3]: 29% | patients experiencing nausea and vomiting ([2]; co-injection of 10-20 mL DMSO along with CAR T cells): 40-60% | patients experiencing nausea and vomiting ([2]; co-injection of approximately 10 mL DMSO along with thawed CAR T cell product): up to 60%
